{
  "source": "paper PMC3879630",
  "about": "(Molecular & Cellular Proteomics : MCP, 2013)",
  "test_in_all_cases": "biotin-switch assay, anti-GST western blot",
  "format_in_all_cases": "binding",
  "key": {"[1]": {"molecular_target": "T1, RNF41 (Homo sapiens, UniProt Q9H4P4, C134S)", "T1 sequence (Q9H4P4 1-317 C134S)": "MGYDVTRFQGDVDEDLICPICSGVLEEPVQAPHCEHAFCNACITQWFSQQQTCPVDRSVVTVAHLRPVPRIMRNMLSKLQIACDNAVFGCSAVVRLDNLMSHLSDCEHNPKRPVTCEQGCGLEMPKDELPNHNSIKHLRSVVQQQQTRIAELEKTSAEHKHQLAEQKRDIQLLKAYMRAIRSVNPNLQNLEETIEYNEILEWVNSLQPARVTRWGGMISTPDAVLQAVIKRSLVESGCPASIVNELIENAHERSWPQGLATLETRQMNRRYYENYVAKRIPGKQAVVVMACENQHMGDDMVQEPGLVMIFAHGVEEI", "settings": "covalent (S-nitrosylation of cysteine); 100 μM GSNO"}, "[2]": {"molecular_target": "T2, RNF41 (Homo sapiens, UniProt Q9H4P4, C106S)", "T2 sequence (Q9H4P4 1-317 C106S)": "T1 sequence (Q9H4P4 1-317 C134S) with C106S, S134C", "settings": "covalent (S-nitrosylation of cysteine); 100 μM GSNO"}, "[3]": {"molecular_target": "T3, RNF41 (Homo sapiens, UniProt Q9H4P4, C238S)", "T3 sequence (Q9H4P4 1-317 C238S)": "T1 sequence (Q9H4P4 1-317 C134S) with S134C, C238S", "settings": "covalent (S-nitrosylation of cysteine); 100 μM GSNO"}, "[4]": {"molecular_target": "T4, RNF11 (Homo sapiens, UniProt Q9Y3C5)", "T4 sequence (Q9Y3C5 1-154)": "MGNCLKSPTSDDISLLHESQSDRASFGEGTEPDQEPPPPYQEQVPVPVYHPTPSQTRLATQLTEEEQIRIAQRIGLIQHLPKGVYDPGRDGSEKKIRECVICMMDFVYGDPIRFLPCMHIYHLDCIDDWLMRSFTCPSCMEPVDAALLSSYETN", "settings": "covalent (S-nitrosylation, Cys4); 100 μM GSNO, 1 h; GSH control"}, "[5]": {"molecular_target": "T5, RNF141 (Homo sapiens, UniProt Q8WVD5, C82S)", "T5 sequence (Q8WVD5 1-230 C82S)": "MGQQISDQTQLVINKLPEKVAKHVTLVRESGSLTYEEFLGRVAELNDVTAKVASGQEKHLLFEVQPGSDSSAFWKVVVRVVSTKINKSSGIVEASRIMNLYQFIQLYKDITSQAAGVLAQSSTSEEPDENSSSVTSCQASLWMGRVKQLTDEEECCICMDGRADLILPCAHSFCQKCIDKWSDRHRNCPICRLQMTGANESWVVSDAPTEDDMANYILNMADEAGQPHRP", "settings": "covalent (S-nitrosylation of cysteine); 100 μM GSNO"}, "[6]": {"molecular_target": "T6, RNF11 (Homo sapiens, UniProt Q9Y3C5, C4S)", "T6 sequence (Q9Y3C5 1-154 C4S)": "T4 sequence (Q9Y3C5 1-154) with C4S", "settings": "covalent (S-nitrosylation of cysteine); 100 μM GSNO"}, "[7]": {"molecular_target": "T7, RNF141 (Homo sapiens, UniProt Q8WVD5)", "T7 sequence (Q8WVD5 1-230)": "T5 sequence (Q8WVD5 1-230 C82S) with S82C", "settings": "covalent (S-nitrosylation of cysteine); 100 μM GSNO"}},
  "note": "Positions count from the first letter of the chain named.",
  "data": [
    {"smiles": "N[C@@H](CCC(=O)N[C@@H](CSN=O)C(=O)NCC(=O)O)C(=O)O", "note": "[GSNO]", "values": [
      {"measurement": "S-nitrosylation (BSM)", "setting": "[1]", "result": "C134S and C238S mutants have minimal effect on the S-nitrosylation of RNF41"},
      {"measurement": "S-nitrosylation (BSM)", "setting": "[2]", "result": "The C106S RNF41 protein S-nitrosylation signal is dramatically reduced compared with WT RNF41"},
      {"measurement": "S-nitrosylation (BSM)", "setting": "[3]", "result": "C134S and C238S mutants have minimal effect on the S-nitrosylation of RNF41"},
      {"measurement": "biotin-switch assay, anti-GST western blot", "setting": "[4]", "result": "Cys4 is S-nitrosylated in RNF11"},
      {"measurement": "S-nitrosylation (BSM)", "setting": "[5]", "result": "The C82S and C175S RNF141 proteins both show reduced S-nitrosylation compared with WT RNF141"},
      {"measurement": "S-nitrosylation (BSM)", "setting": "[6]", "result": "The C4S RNF11 protein is not S-nitrosylated"},
      {"measurement": "S-nitrosylation (BSM)", "setting": "[7]", "result": "The C82S and C175S RNF141 proteins both show reduced S-nitrosylation compared with WT RNF141"}
    ]}
  ]
}
